# Assay results from patent US10975068B2, “6-aminopyridin-3-yl thiazoles as modulators of RORγT” (Janssen Pharmaceutica NV, priority 2016, dated 2021).
# Target: human RORγt ligand binding domain (RORγt LBD) (Homo sapiens (Human), UniProt P51449)
# Experiment: RORγt ThermoFluor® assay (thermal shift binding)
# Conditions: read-out: ThermoFluor® Assay, Kd
# Summary of the method: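 Binding was inferred from thermal stabilisation (ΔTm) of the E. coli-expressed RORγt LBD (0.065 mg/mL), monitored by 1,8-ANS (60 μM) emission at 500 nm during a 1 °C/min ramp. Buffer was Hepes 100 mM pH 7.0 with NaCl, GSH and Tween-20.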
# Chain of human RORγt ligand binding domain (RORγt LBD) (P51449 other isoform, or with tags, fused parts or gaps): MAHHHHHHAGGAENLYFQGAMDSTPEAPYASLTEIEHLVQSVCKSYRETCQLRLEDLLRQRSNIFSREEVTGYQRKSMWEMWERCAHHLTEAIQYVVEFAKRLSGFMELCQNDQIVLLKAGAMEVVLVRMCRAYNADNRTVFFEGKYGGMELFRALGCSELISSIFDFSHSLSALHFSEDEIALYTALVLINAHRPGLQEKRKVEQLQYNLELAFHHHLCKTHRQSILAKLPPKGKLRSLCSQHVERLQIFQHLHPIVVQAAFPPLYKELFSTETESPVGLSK
row,SMILES,Kd
1,"O=C(N[C@H]1C[C@H](O)C1)c1nc(C(=O)N2C3CCC2CC3)c(-c2cnc(N[C@@H](C3CC3)C(F)(F)F)cc2C(F)F)s1 [Example 318, 4-((1s,4s)-7-Azabicyclo[2.2.1]heptane-7-carbonyl)-5-(6-(((S)-1-cyclopropyl-2,2,2-trifluoroethyl)amino)-4-(difluoromethyl)pyridin-3-yl)-N-((1r,3S)-3-hydroxycyclobutyl)thiazole-2-carboxamide]",8.1 nM
2,"C[C@H]1CCCN1C(=O)c1nc(C(=O)NC[C@@H](O)C(C)(C)O)sc1-c1cnc(NC(C)(C)C)cc1C(F)(F)F (single isomer, unassigned) [Example 243, 5-(6-(tert-Butylamino)-4-(trifluoromethyl)pyridin-3-yl)-N—((R*)-2,3-dihydroxy-3-methylbutyl)-4-((S)-2-methylpyrrolidine-1-carbonyl)thiazole-2-carboxamide]",7.3 nM
3,"CC(C)(O)CNC(=O)c1nc(C(=O)N2C3CCC2CC3)c(-c2cnc(NC3(C)CCC3)cc2C(F)(F)F)s1 [Example 140, 4-((1s,4s)-7-Azabicyclo[2.2.1]heptane-7-carbonyl)-N-(2-hydroxy-2-methylpropyl)-5-(6-((1-methylcyclobutyl)amino)-4-(trifluoromethyl)pyridin-3-yl)thiazole-2-carboxamide]",1.7 nM
4,"C[C@H](NC(=O)c1nc(C(=O)N2CCC[C@@H]2C)c(-c2cnc(N[C@@H](C)C(F)(F)F)cc2C(F)F)s1)C(C)(C)O [Example 199, 5-(4-(Difluoromethyl)-6-(((S)-1,1,1-trifluoropropan-2-yl)amino)pyridine-3-yl)-N—((S)-3-hydroxy-3-methylburan-2-yl)-4-((S)-2-methylpyrrolidine-1-carbonyl)thiazole-2-carboxamide]",5.4 nM
